Tested on: Rice
Assay: Transplanted rice safety evaluation and weed control effect evaluation in rice field
Assay type: in vivo, rice (japonica rice/Indica rice)
Settings: Table 7, dose 125 g a.i./ha, 21 days after treatment
Method in brief: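 Japonica and Indica rice at 3-leaf stage transplanted into flooded paddy soil (3-4 cm water). Compound applied 5 days after transplanting. Weeds scored visually on 0-5 scale at 14 days; rice injury at 21 days.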

## CCSc1c(C(F)(F)F)ccc(C(=O)Nc2nnc(C)o2)c1F [Compound 1-4]
  Rice (safety level): 0 (Level 0: growth control rate is less than 5%)
